Data as given in patent US20240408085A1, “COMPOUND FOR DEGRADATION OF BCL-2 FAMILY PROTEINS AND MEDICAL APPLICATION THEREOF” (XIZANG HAISCO PHARMACEUTICAL CO., LTD., priority 2021, published 2024).

What follows are compounds tested on MOLT-4 cells (assay: Cell proliferation activity in MOLT-4 cells (72 h, cell viability luminescence)). Conditions: Homo sapiens, read-out: IC50 for the inhibition of MOLT-4 cell proliferation.
Type: cell-based, human
Protocol: MOLT-4 cells are acute lymphoblastic leukemia cell lines in humans. The cells were purchased from ATCC. Culture conditions: RPMI-1640+10% FBS+1% penicillin-streptomycin solution. The cells were cultured in a 37° C., 5% CO2 incubator. The cells were plated in a 96-well plate, with 5×10^3 cells/well. After plating, compounds at different concentrations were added and cultured in a 37° C., 5% CO2 incubator for 72 h. After the completion of culture, a reagent (Promega, G7573) for detecting the cell viability was added. The mixture was uniformly mixed for 2 minutes and then incubated at room temperature for 10 minutes. The luminescence signal was detected with a multimode plate reader (BMG, PHERAstar FSX). The luminescence readings were processed using GraphPad Prism 8.0 software and the IC50 values of the compounds for the inhibition of cell proliferation and the maximum inhibition rate were calculated according to formula (2) and formula (3), respectively, wherein Tadministration denotes the cell signal readings obtained after incubation with the compounds for 72 h, and Tvehicle denotes the cell signal readings obtained after incubation with the vehicle control for 72 h.
Calculation of Max inhibition %: after the processing according to formula (2), the inhibition rate of the compounds at the highest concentration was calculated.

| SMILES | IC50 [nM] |
| --- | --- |
| Cc1ncsc1-c1ccc([C@H](C)NC(=O)[C@@H]2C[C@@H](O)CN2C(=O)[C@@H](NC(=O)CCCCCC(=O)N2C[C@@H]3C[C@H]2CN3CC[C@H](CSc2ccccc2)Nc2ccc(S(=O)(=O)NC(=O)c3ccc(N4CCN(CC5=C(c6ccc(Cl)cc6)CCCCC5)CC4)cc3)cc2S(=O)(=O)C(F)(F)F)C(C)(C)C)cc1 [Compound 33, (2S,4R)-1-((S)-2-(7-((1S,4S)-5-((R)-3-((4-(N-(4-(4-((2-(4-chlorophenyl)cyclohept-1-en-1-yl)methyl)piperazin-1-yl)benzoyl)sulfamoyl)-2-((trifluoromethyl)sulfonyl)phenyl)amino)-4-(phenylthio)butyl)-2,5-diazabicyclo[2.2.1]heptan-2-yl)-7-oxoheptanamido)-3,3-dimethylbutanoyl)-4-hydroxy-N—((S)-1-(4-(4-methylthiazol-5-yl)phenyl)ethyl)pyrrolidine-2-carboxamide] | < 500 |
| Cc1ncsc1-c1ccc([C@H](C)NC(=O)[C@@H]2C[C@@H](O)CN2C(=O)[C@@H](NC(=O)CCCCCCC(=O)N2C[C@@H]3C[C@H]2CN3CC[C@H](CSc2ccccc2)Nc2ccc(S(=O)(=O)NC(=O)c3ccc(N4CCN(CC5=C(c6ccc(Cl)cc6)CCCCC5)CC4)cc3)cc2S(=O)(=O)C(F)(F)F)C(C)(C)C)cc1 [Compound 34, (2S,4R)-1-((S)-2-(8-((1S,4S)-5-((R)-3-((4-(N-(4-(4-((2-(4-chlorophenyl)cyclohept-1-en-1-yl)methyl)piperazin-1-yl)benzoyl)sulfamoyl)-2-((trifluoromethyl)sulfonyl)phenyl)amino)-4-(phenylthio)butyl)-2,5-diazabicyclo[2.2.1]heptan-2-yl)-8-oxooctanamido)-3,3-dimethylbutanoyl)-4-hydroxy-N—((S)-1-(4-(4-methylthiazol-5-yl)phenyl)ethyl)pyrrolidine-2-carboxamide] | < 500 |
| Cc1ncsc1-c1ccc([C@H](C)NC(=O)[C@@H]2C[C@@H](O)CN2C(=O)[C@@H](NC(=O)CCCCCC(=O)N2CCN(CC[C@H](CSc3ccccc3)Nc3ccc(S(=O)(=O)NC(=O)c4ccc(N5CCN(CC6=C(c7ccc(Cl)cc7F)CCCCC6)CC5)cc4)cc3S(=O)(=O)C(F)(F)F)CC2)C(C)(C)C)cc1 [Compound 35, (2S,4R)-1-((S)-2-(7-(4-((R)-3-((4-(N-(4-(4-((2-(4-chloro-2-fluorophenyl)cyclohept-1-en-1-yl)methyl)piperazin-1-yl)benzoyl)sulfamoyl)-2-((trifluoromethyl)sulfonyl)phenyl)amino)-4-(phenylthio)butyl)piperazin-1-yl)-7-oxoheptanamido)-3,3-dimethylbutanoyl)-4-hydroxy-N—((S)-1-(4-(4-methylthiazol-5-yl)phenyl)ethyl)pyrrolidine-2-carboxamide] | < 500 |
| Cc1ncsc1-c1ccc([C@H](C)NC(=O)[C@@H]2C[C@@H](O)CN2C(=O)[C@@H](NC(=O)CCCCCCC(=O)N2CCN(CC[C@H](CSc3ccccc3)Nc3ccc(S(=O)(=O)NC(=O)c4ccc(N5CCN(CC6=C(c7ccc(Cl)cc7F)CCCCC6)CC5)cc4)cc3S(=O)(=O)C(F)(F)F)CC2)C(C)(C)C)cc1 [Compound 36, (2S,4R)-1-((S)-2-(8-(4-((R)-3-((4-(N-(4-(4-((2-(4-chloro-2-fluorophenyl)cyclohept-1-en-1-yl)methyl)piperazin-1-yl)benzoyl)sulfamoyl)-2-((trifluoromethyl)sulfonyl)phenyl)amino)-4-(phenylthio)butyl)piperazin-1-yl)-8-oxooctanamido)-3,3-dimethylbutanoyl)-4-hydroxy-N—((S)-1-(4-(4-methylthiazol-5-yl)phenyl)ethyl)pyrrolidine-2-carboxamide] | < 500 |
| Cc1ncsc1-c1ccc([C@H](C)NC(=O)[C@@H]2C[C@@H](O)CN2C(=O)[C@@H](NC(=O)CCCCCC(=O)N2C[C@@H]3C[C@H]2CN3CC[C@H](CSc2ccccc2)Nc2ccc(S(=O)(=O)NC(=O)c3ccc(N4CCN(CC5=C(c6ccc(Cl)cc6F)CCCCC5)CC4)cc3)cc2S(=O)(=O)C(F)(F)F)C(C)(C)C)cc1 [Compound 37, (2S,4R)-1-((S)-2-(7-((1S,4S)-5-((R)-3-((4-(N-(4-(4-((2-(4-chloro-2-fluorophenyl)cyclohept-1-en-1-yl)methyl)piperazin-1-yl)benzoyl)sulfamoyl)-2-((trifluoromethyl)sulfonyl)phenyl)amino)-4-(phenylthio)butyl)-2,5-diazabicyclo[2.2.1]heptan-2-yl)-7-oxoheptanamido)-3,3-dimethylbutanoyl)-4-hydroxy-N—((S)-1-(4-(4-methylthiazol-5-yl)phenyl)ethyl)pyrrolidine-2-carboxamide] | < 500 |
| Cc1ncsc1-c1ccc([C@H](C)NC(=O)[C@@H]2C[C@@H](O)CN2C(=O)[C@@H](NC(=O)CCCCCCC(=O)N2C[C@@H]3C[C@H]2CN3CC[C@H](CSc2ccccc2)Nc2ccc(S(=O)(=O)NC(=O)c3ccc(N4CCN(CC5=C(c6ccc(Cl)cc6F)CCCCC5)CC4)cc3)cc2S(=O)(=O)C(F)(F)F)C(C)(C)C)cc1 [Compound 38, (2S,4R)-1-((S)-2-(8-((1S,4S)-5-((R)-3-((4-(N-(4-(4-((2-(4-chloro-2-fluorophenyl)cyclohept-1-en-1-yl)methyl)piperazin-1-yl)benzoyl)sulfamoyl)-2-((trifluoromethyl)sulfonyl)phenyl)amino)-4-(phenylthio)butyl)-2,5-diazabicyclo[2.2.1]heptan-2-yl)-8-oxooctanamido)-3,3-dimethylbutanoyl)-4-hydroxy-N—((S)-1-(4-(4-methylthiazol-5-yl)phenyl)ethyl)pyrrolidine-2-carboxamide] | < 500 |
| Cc1ncsc1-c1ccc([C@H](C)NC(=O)[C@@H]2C[C@@H](O)CN2C(=O)[C@@H](NC(=O)CCCCCC(=O)N2C[C@H]3CN(CC[C@H](CSc4ccccc4)Nc4ccc(S(=O)(=O)NC(=O)c5ccc(N6CCN(CC7=C(c8ccc(Cl)cc8F)CCCCC7)CC6)cc5)cc4S(=O)(=O)C(F)(F)F)C[C@H]3C2)C(C)(C)C)cc1 [Compound 39, cis-(2S,4R)-1-((S)-2-(7-(5-((R)-3-((4-(N-(4-(4-((2-(4-chloro-2-fluorophenyl)cyclohept-1-en-1-yl)methyl)piperazin-1-yl)benzoyl)sulfamoyl)-2-((trifluoromethyl)sulfonyl)phenyl)amino)-4-(phenylthio)butyl)hexahydropyrrolo[3,4-c]pyrrol-2(1H)-yl)-7-oxoheptanamido)-3,3-dimethylbutanoyl)-4-hydroxy-N—((S)-1-(4-(4-methylthiazol-5-yl)phenyl)ethyl)pyrrolidine-2-carboxamide] | < 500 |
| Cc1ncsc1-c1ccc([C@H](C)NC(=O)[C@@H]2C[C@@H](O)CN2C(=O)[C@@H](NC(=O)CCCCCCC(=O)N2C[C@H]3CN(CC[C@H](CSc4ccccc4)Nc4ccc(S(=O)(=O)NC(=O)c5ccc(N6CCN(CC7=C(c8ccc(Cl)cc8F)CCCCC7)CC6)cc5)cc4S(=O)(=O)C(F)(F)F)C[C@H]3C2)C(C)(C)C)cc1 [Compound 40, cis-(2S,4R)-1-((S)-2-(8-(5-((R)-3-((4-(N-(4-(4-((2-(4-chloro-2-fluorophenyl)cyclohept-1-en-1-yl)methyl)piperazin-1-yl)benzoyl)sulfamoyl)-2-((trifluoromethyl)sulfonyl)phenyl)amino)-4-(phenylthio)butyl)hexahydropyrrolo[3,4-c]pyrrol-2(1H)-yl)-8-oxooctanamido)-3,3-dimethylbutanoyl)-4-hydroxy-N—((S)-1-(4-(4-methylthiazol-5-yl)phenyl)ethyl)pyrrolidine-2-carboxamide] | < 500 |
| Cc1ncsc1-c1ccc([C@H](C)NC(=O)[C@@H]2C[C@@H](O)CN2C(=O)[C@@H](NC(=O)CCCCCC(=O)N2C[C@H]3CN(CC[C@H](CSc4ccccc4)Nc4ccc(S(=O)(=O)NC(=O)c5ccc(N6CCN(CC7=C(c8ccc(Cl)cc8)CCCCC7)CC6)cc5)cc4S(=O)(=O)C(F)(F)F)C[C@H]3C2)C(C)(C)C)cc1 [Compound 41, cis-(2S,4R)-1-((S)-2-(7-(5-((R)-3-((4-(N-(4-(4-((2-(4-chlorophenyl)cyclohept-1-en-1-yl)methyl)piperazin-1-yl)benzoyl)sulfamoyl)-2-((trifluoromethyl)sulfonyl)phenyl)amino)-4-(phenylthio)butyl)hexahydropyrrolo[3,4-c]pyrrol-2(1H)-yl)-7-oxoheptanamido)-3,3-dimethylbutanoyl)-4-hydroxy-N—((S)-1-(4-(4-methylthiazol-5-yl)phenyl)ethyl)pyrrolidine-2-carboxamide] | < 500 |
| Cc1ncsc1-c1ccc([C@H](C)NC(=O)[C@@H]2C[C@@H](O)CN2C(=O)[C@@H](NC(=O)CCCCCCC(=O)N2C[C@H]3CN(CC[C@H](CSc4ccccc4)Nc4ccc(S(=O)(=O)NC(=O)c5ccc(N6CCN(CC7=C(c8ccc(Cl)cc8)CCCCC7)CC6)cc5)cc4S(=O)(=O)C(F)(F)F)C[C@H]3C2)C(C)(C)C)cc1 [Compound 42, cis-(2S,4R)-1-((S)-2-(8-(5-((R)-3-((4-(N-(4-(4-((2-(4-chlorophenyl)cyclohept-1-en-1-yl)methyl)piperazin-1-yl)benzoyl)sulfamoyl)-2-((trifluoromethyl)sulfonyl)phenyl)amino)-4-(phenylthio)butyl)hexahydropyrrolo[3,4-c]pyrrol-2(1H)-yl)-8-oxooctanamido)-3,3-dimethylbutanoyl)-4-hydroxy-N—((S)-1-(4-(4-methylthiazol-5-yl)phenyl)ethyl)pyrrolidine-2-carboxamide] | < 500 |
